Results taken from paper PMC7413254 (Nature Communications, 2020).

System: PfCRT
Assay: Potential co-substrates tested for influx of VF-6 via PfCRT into the oocyte
Assay type: cell-based, Plasmodium falciparum
Design: key: X: Compounds that have been tested as potential co-substrates but are not required for influx of VF-6 via PfCRT into the oocyte

SMILES | Tested as potential co-substrate but not required for influx of VF-6 via PfCRT into the oocyte
CSCC[C@H](N)C(=O)O [L-methionine] | X
N[C@@H](Cc1ccccc1)C(=O)O [L-phenylalanine] | X
N[C@@H](CO)C(=O)O [L-serine] | X
C[C@@H](O)[C@H](N)C(=O)O [L-threonine] | X
N[C@@H](Cc1c[nH]c2ccccc12)C(=O)O [L-tryptophan] | X
